Measurements taken from patent US20240335395A1, “COMPOSITIONS AND METHODS FOR PREVENTING AND/OR TREATING DISEASE ASSOCIATED WITH IL-23 EXPRESSION” (ALLSPIM, priority 2021, published 2024).

Key:
IL-23 = IL-23 production (ELISA) in LPS-stimulated THP-1 cells, 2,4-D versus other chalcones, Example 2; format: cell-based, human; conditions: LPS-stimulated THP-1
Excerpt: Molecules tested. Natural 2,4-D, isolated and purified from Chloranthus spicatus (purity HPLC≥98%, Cat. No.: 129742-43-2), was purchased from BOC Science (Shirley, NY). Synthetic 2,4-D (purity HPLC≥98%) was obtained from YIWEI Biotech (Shanghai, China). 2′-hydroxychalcone (2′-HC, purity HPLC≥98%, Cat. No.: 42224-53-3), 4-hydroxychlcone (4-HC, purity HPLC≥98%, Cat. No.: 20426-12-4), 2′,2-dihydroxychalcone (2′,2-DHC, purity HPLC≥98%, Cat. No.: IDF00045_ALDRICH), 2′,3-dihydroxychalcone (2′,3-DHC, purity HPLC≥98%, Cat No.: IDF00047_ALDRICH), 2′,4-dihydroxychalcone (2′,4-DHC, purity HPLC≥98%, Cat. No.: PH011685_ALDRICH), 2′,5′-dihydroxychalcone (2′,5′-DHC, purity HPLC≥98%, No.: IDF00046-1G), and 2′,4′,4-trihydroxychalcone (2′,4′4-THC, purity HPLC≥98%, No.: 38986_SIAL) were purchased from Sigma. 2′,4′-dihydroxychalcone (2′,4′-DHC, purity HPLC≥98%, Cat. No. AB151736) was purchased from abcr GmbH (Karlsruhe, Germany). Isobavachalcone (IBC), 4′-hydroxy-2′6′-dimethoxychalcone (HMC), 2-trifluoromethyl-2′-methoxychalcone (TFM) and Hydroxysafflor yellow A (HYA) were also tested.
Cell culture. THP-1 cells were cultured in RPMI 1640 culture medium (Gibco) supplemented with 10% fetal bovine serum (FBS; Gibco, UK.), 0.05 mM 2-mercaptoethanol, and 1% penicillin/streptomycin. Cells were used in exponential growth phase, with culture medium being replaced with fresh medium 1 day prior to the experiment. The following day, THP-1 cells were plated into 24-well culture plates with a cell density about 800,000 cells/mL and 2 mL per well. 10 ng/mL LPS was used to stimulate the THP-1 cells. RPMI 1640 medium containing 10% FBS and 1% P/S was used as a normal control (NC). 10 mM stock solutions of compounds in DMSO were diluted to 20 μM with complete culture medium just before use. Experiments were performed in quadruplicate.
Enzyme linked immune-sorbent assay (ELISA). At 24 hours, after centrifugation at 300 g for 10 min., 0.5 mL of supernatant was collected and stored at −80° C. until use. IL-23 levels were determined in culture supernatants as described in Example 1.

[1] = test system: laser-induced choroidal neovascularization (CNV); test: Laser-induced CNV in rats, CNV surface on lectin-labelled RPE-choroid flat-mounts; format: in vivo, rat; conditions: intravitreous injection
Experimental: Animals. All experiments were performed in accordance with the European Communities Council Directive 86/609/EEC and approved by local ethical committees (#2541-2015110210279792 v3). Six- to eight-week-old male Long Evans rats from the Janvier Breeding Center (Le Genest-Saint-Isle, France) were used to create a rat model of choroidal neovascularization (CNV) used as a model of human wet macular degeneration. Laser-induced CNV. After anesthesia and dilation of the pupils, coverslips were positioned on the cornea as a contact glass. […] Animals were sacrificed at 7 days (n=6 per group- and at 16 days (n=6 per group). RPE-choroid flat-mounts and CNV quantifications. Two days after FA examination (time necessary for fluorescein elimination), eyes were enucleated, fixed in 4% PFA for 15 min at room temperature and sectioned at the limbus; the cornea and lens were discarded. The retina was separated from the RPE-choroid complex. Eight radial incisions were made on the RPE-choroid, which was then flat-mounted and post-fixed with acetone for 15 min at −20° C. After washing with 0.1% Triton x100 in PBS, FITC-GSL I-Isolectin B4 (1:200, Vector, AbCys, Paris, France) was applied over night at […] Images of the CNV were captured with a digital video camera coupled to a computer system on an Olympus fluorescence microscope. […]

TNF-alpha = test: MSU-induced TNF-alpha in knee joint tissue (multiplex microassay); format: in vivo, mouse; conditions: 2,4-D 100 mg/kg, CLC 1 mg/kg, DEX 0.5 mg/kg
Experimental: Mice (six per group) were treated with 2,4-D (100 mg/kg or 20 mg/kg, i.p.), CLC (1 mg/kg or 0.2 mg/kg, i.p.), DEX (0.5 mg/kg or 0.1 mg/kg, i.p.), or vehicle (20% polyoxyethylenesorbitan monooleate (Tween 80) plus PBS) 30 min before intra-articular stimulus with MSU (100 μg/10 μL, i.a.). Six mice with intra-articular injection with PBS alone served as a negative control.
Induction of MSU-Induced Knee Joint Inflammation. Male ICR (CD-1) mice (35-45 g, 10-12 weeks) were purchased from VitalRiver Inc (Beijing, China) and were kept in an animal care facility under controlled temperature of 21±1° C., humidity, and on a light/dark cycle, with ad libitum access to water and standard laboratory chow diet. Animal care and handling procedures were approved by the Animal Ethics Committee of GZUCM (Guangzhou University of Chinese Medicine). All efforts were made to minimize animal suffering and to reduce the number of animals used. Joint inflammation was induced by the intra-articular (i.a.) administration of MSU (200 μg/20 μl) into the right and left knee joints of mice under inhaled 3% isoflurane anesthesia. Control animals received an injection (i.a.) of sterile PBS (20 μL).
Cytokine Measurement. Mice were anesthetized and sacrificed. Knee joints were collected and frozen in liquid nitrogen. Samples were then homogenized in 500 μl of buffer containing protease inhibitors, centrifuged (3600 rpm, 4° C., 15 min) and supernatants were used to determine Th1/Th2/Th17 cytokine levels using a multiplex microassay (Qantibody® mouse TH17 Array 1 kit, Cat. No.: QAM-TH17-1; RayBiotech, Norcross, GA). Results were expressed as picograms (pg) of cytokine/mg of tissue.
Statistical Analysis. […] For in vitro experiments, microassays were performed in quadruplicate. p<0.05 was considered significant (*p<0.05, **p<0.01, ***p<0.001).

## COc1cc(O)c(OC)c(O)c1C(=O)/C=C/c1ccccc1 [2,4-D, 2′,4′-dihydroxy-3′,6′-dimethoxychalcone]
IL-23
  inhibition of IL-23, superiority over remaining compounds: 7,5- to 18 fold
[1]
  CNV size (surface of lectin positive labelling): significantly reduced
TNF-alpha
  decrease of TNF-alpha in knee joint tissue: 1.9 fold
